The values that follow come from US12502380B2, “MrgprX2 antagonists for the treatment of inflammatory disorders” (Dermira, Inc., priority 2019, dated 2025).

The target in the test is T1, Human MrgprX2 (Homo sapiens, UniProt Q96LB1).
T1 construct: expressed in transfected cells
T1 sequence (Q96LB1 1-330): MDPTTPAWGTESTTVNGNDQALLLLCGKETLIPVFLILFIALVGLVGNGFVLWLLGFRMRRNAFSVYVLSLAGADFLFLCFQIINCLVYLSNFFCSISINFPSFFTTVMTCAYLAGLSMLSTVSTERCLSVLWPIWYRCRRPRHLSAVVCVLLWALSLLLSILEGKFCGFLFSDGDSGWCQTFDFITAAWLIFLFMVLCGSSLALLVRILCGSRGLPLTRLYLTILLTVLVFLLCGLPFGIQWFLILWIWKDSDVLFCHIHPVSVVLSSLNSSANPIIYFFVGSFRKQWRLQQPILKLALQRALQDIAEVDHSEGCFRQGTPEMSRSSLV
The experiment in a line: Human MrgprX2 antagonist FLIPR intracellular calcium mobilization assay. In kind it is cell-based. The settings on record: antagonist activity, recombinant hMrgpMRGPRX2 expressing cells, read-out: Human MrgprX2 Antagonist pIC50 (converted). From the text:
Potent and selective hMrgpMRGPRX2 compounds have been generated from compounds identified during a high throughput screening (HTS) campaign and followed up with cycles of structure activity based medicinal chemistry efforts. These compounds were characterized in recombinant hMrgpMRGPRX2 expressing cells for their antagonist activity and the potency was confirmed in the human mast cell line LAD-2, where the target is endogenously expressed. The assays used to determine potencies are functional read-out looking at intracellular calcium mobilization using the FLIPR™ technology. In these FLIPR assays, we test the identified compounds using recombinant cellular systems expressing mouse MrgprB2, mouse MrgprA1, gerbil MrgpMRGPRX2 orthologue, Chinese hamster MrgpMRGPRX2 orthologue and cynomolgus monkey MrgpMRGPRX2 orthologue, respectively for orthologue activity.
On the technique in general: Calcium assays in cells follow changes in intracellular calcium, usually with a dye or a luminescent sensor.
As to `CCN(C[C@H](C)O)C(=O)Nc1ncc(Oc2ccccc2F)s1` [Compound E171], the IC50 was 0.794 nM.
To `C[C@H](O)CN(C)C(=O)Nc1ncc(Oc2cccnc2)s1` [Compound E167] belongs 3160 nM.
In the case of `CC(C)c1nc2ccc(Oc3ccccc3)cc2[nH]1` [Compound E222, 6-phenoxy-2-(propan-2-yl)-1H-1,3-benzodiazole] it was 3980 nM; in that of `C[C@H](O)CN(C)C(=O)Nc1ncc(Oc2cccc(C(F)(F)F)c2)s1` [Compound E182], 20 nM; in that of `CC1(C(=O)Nc2ncc(Cc3cccc(Cl)c3)s2)CCOC1` (centres unmarked) [Compound E033, N-[5-[(3-chlorophenyl)methyl]thiazol-2-yl]-3-methyl-tetrahydrofuran-3-carboxamide], 79.4 nM.
Consider `CC(O)CN(C(=O)Nc1ncc(Cc2cccc(F)c2)s1)C1CC1` (centres unmarked) [Compound E114], for which the IC50 was 794 nM.
As for `CC(C)NC(=O)c1nc(F)c(Cc2ccc(F)cc2)s1` [Compound E220, 4-fluoro-5-[(4-fluorophenyl)methyl]-N-isopropyl-thiazole-2-carboxamide], the IC50 is 6310 nM.
In the case of `CCN(C[C@H](C)O)C(=O)Nc1nc(C)c(Oc2cc(F)cc(C#N)c2)s1` [Compound E209] it was 3.16 nM; in that of `O=C(Nc1ncc(Cc2cccc(F)c2)s1)N1CCC[C@H]1CO` [Compound E120], 398 nM; in that of `C[C@H](O)CN(C)C(=O)Nc1ncc(Oc2ccc(C#N)c(F)c2)s1` [Compound E164], 3.16 nM.
In the case of `C[C@H](O)CN(C)C(=O)Nc1ncc(Oc2ccc(F)cc2)s1` [Compound E151] it was 2 nM; in that of `CS(=O)(=O)N1CCC[C@@H]1C(=O)Nc1ncc(Cc2cccc(F)c2)s1` [Compound E056, (2R)—N-[5-[(3-fluorophenyl)methyl]thiazol-2-yl]-1-methylsulfonyl-pyrrolidine-2-carboxamide], 1580 nM; in that of `C[C@H](O)CN(C)C(=O)Nc1ncc(Oc2cncc(C(F)(F)F)c2)s1` [Compound E179], 3980 nM.
To `CCN(CCO)C(=O)Nc1ncc(Oc2ccc(F)cc2)s1` [Compound E186] belongs 31.6 nM.
Regarding `O=C(Nc1ncc(Oc2ccccc2)s1)[C@H]1CCCN1` [Compound E085, (2R)—N-(5-phenoxythiazol-2-yl)pyrrolidine-2-carboxamide], the IC50 is 2510 nM.
To `C[C@H](O)CN(C)C(=O)Nc1ncc(Oc2cccc(C#N)c2)s1` [Compound E159] belongs 10 nM; to `CC(C(=O)Nc1ncc(Cc2ccccc2F)s1)N1CCCC1` (centres unmarked) [Compound E017], 1260 nM.
Regarding `O=C(Nc1ncc(Cc2cccc(F)c2)s1)N1CCOC[C@@H]1CO` [Compound E124], the IC50 was 794 nM.
Regarding `NS(=O)(=O)N1CCC[C@@H]1C(=O)Nc1ncc(Oc2ccc(F)cc2)s1` [Compound E089, (2R)—N-[5-(4-fluorophenoxy)thiazol-2-yl]-1-sulfamoyl-pyrrolidine-2-carboxamide], the IC50 was 25.1 nM.
To `CC(C)C(=O)Nc1ncc(Cc2ccc(F)c(F)c2)s1` [Compound E043] belongs 7.94 nM; to `CC(C)C(=O)Nc1ncc(C(C)c2ccccc2)s1` (centres unmarked) [Compound E219, 2-methyl-N-[5-(1-phenylethyl)thiazol-2-yl]propanamide], 794 nM.
To `CC(C)(C#N)C(=O)Nc1ncc(Cc2cccc(Cl)c2)s1` [Compound E034] belongs 158 nM; to `NC(=O)[C@@H]1CCCN1C(=O)Nc1ncc(Cc2cccc(F)c2)s1` [Compound E131], 6310 nM; to `Cc1nc(NC(=O)C(C)C)sc1Cc1ccccc1` [Compound E040], 631 nM.
For the compound `CC1(C(=O)Nc2ncc(Cc3ccccc3F)s2)CCOCC1` [Compound E004], the IC50 was 398 nM.
In the case of `CCN(C[C@H](C)O)C(=O)Nc1nc(C#N)c(Oc2ccc(F)cc2)s1` [Compound E207] it was 1000 nM.
